This is an account of results in patent US7914817B2, “Treatment of inflammatory bowel disease” (Ed. Geistlich Soehne AG fuer Chemische Industrie, priority 2000, dated 2011).

The test system of data set [1] is systemic inflammatory response in patients with active inflammatory bowel disease. Briefly: Oral taurolidine in patients with active IBD: systemic inflammatory response (Example 1). In kind it is in vivo. Particulars: pre- vs post-administration (day 2, 5, 10). As to the method: This experiment evaluates the beneficial effects of oral administration of taurolidine on attenuation of systemic inflammatory response in patients with active inflammatory bowel disease. This Example measures systemic proinflammatory and angiogenic cytokines, systemic reactive oxygen species and nitric oxide in patients with IBD pre- and post-taurolidine administration. Secondly, circulating PMN and monocytes from patients with IBD are assessed for their adhesion receptor expression, and their ability to release proinflammatory and angiogenic cytokines, as well as reactive oxygen species and nitric oxide following taurolidine treatment.
• 1) Peripheral venous blood samples are collected from patients on the day before taurolidine administration, and day 2, day 5 and day 10 after taurolidine administration. Serum samples are harvested by centrifugation and stored at −80° C. for measurement of serum levels of endotoxin, LPS binding protein (LBP), and soluble CD14, serum proinflammatory cytokines (TNF-α, IL-1β, IL-6), serum angiogenic cytokines (VEGF, TGF-β1), serum lipid peroxides (malonaldehyde), nitric oxide and peroxynitrite. • 2) Receptor expression of CD11a, CD11b, CD18, and CD14 on PMN and monocytes in the whole blood samples are assessed on the day before taurolidine administration, and day 2, day 5, and day 10 after taurolidine administration. […]

For data set [2] the following is noted: metabolized to taurine, carbon dioxide and water; cited from earlier work.
Data set [3] has as its system gram positive and gram negative bacteria and fungi. Particulars: cited from earlier work.
For data set [4] the following is noted: humans and animals, intravenous and intraperitoneal administration; cited from earlier work.
Data set [5] has as its system inflammatory response in intestinal mucosa in patients with active inflammatory bowel disease. As to the kind of experiment: Oral taurolidine in patients with active IBD: inflammatory response in intestinal mucosa (Example 2). The class given is in vivo. The text has this: This example evaluates the beneficial effect of oral administration of taurolidine on amelioration of inflammatory response in intestinal mucosa in patients with active inflammatory bowel disease. This Example measures proinflammatory cytokines, angiogenic cytokines, reactive oxygen species and nitric oxide in the mucosal biopsy cultures in patients with IBD pre- and post-taurolidine administration. Local mucosal recruited PMN and mononuclear leukocyte-associated proinflammatory cytokine and angiogenic cytokine expression in patients with IBD are assessed pre- and post-taurolidine treatment.
• 1) The specimens of standard intestinal mucosal biopsy are collected from patients with IBD on the day before taurolidine administration, and day 5 and day 10 after taurolidine administration, and incubated with completed culture medium for different time points. The supernatants from the biopsy cultures are harvested by centrifugation and stored at −80° C. for measurement of proinflammatory cytokines (TNF-α, IL-1β, IL-6), angiogenic cytokines (VEGF, TGF-β1), lipid peroxides (malonaldehyde), nitric oxide and peroxynitrite. • 2) The mononuclear leukocytes from the above specimens of mucosal biopsy are isolated using the technique of collagenase-digestion and density gradient sedimentation. […]

Take `O=S1(=O)CCN(CN2CCS(=O)(=O)NC2)CN1` [Taurolidine, bis(1,1-dioxoperhydro-1,2,4-thiadiazin-4-yl)methane]: in data set [1], the “systemic proinflammatory and angiogenic cytokine levels, PMN and monocyte adhesion receptor expression, lipid peroxides, nitric oxide, peroxynitrite” value was “ameliorates these phenomena”. The half life result in data set [2] was “short half life”. The antimicrobial activity result in data set [3] is listed as “broad spectrum of antimicrobial activity”. The “toxicity / side effects” value in data set [4] was “non-toxic to humans and animals and is free from side effects”. Further, in data set [5] (day before vs day 5 and day 10), the “pathological changes in intestinal mucosa” value was “improves pathological changes in intestinal mucosa”. Also, the “proinflammatory cytokines, angiogenic cytokines, reactive oxygen species, recruitment of PMN and mononuclear leukocytes in the intestinal mucosa” value in data set [5] (mucosal biopsy) is “downregulation”.
